Results as given in US20230027066A1 (Urovant Sciences GmbH, priority 2019, published 2023).

Tested on: men and women with overactive bladder
Test: Phase 3 study of vibegron 75 mg vs placebo and tolterodine ER 4 mg, 12 weeks, efficacy (voiding and urine volume diary)
Type: in vivo, human
Conditions: for Daily Urgency Episodes: Vibegron - Placebo LS Means Difference: 75 mg; for Daily Urgency Episodes: Reduction from Baseline at Week 12, LS Mean: vibegron 75 mg, tolterodine ER 4 mg; for Patients with 100% Reduction in UUI from Baseline to Week 12, Unadjusted n (%) / Patients with at Least 75% Reduction in UUI from Baseline to Week 12, Unadjusted n (%) / Patients with 100% Reduction in UUI from Baseline to Week 12, Adjusted n (%) / Patients with at Least 75% Reduction in UUI from Baseline to Week 12, Adjusted n (%): FAS-I; for Patients with 100% Reduction in UUI from Baseline to Week 12, Adjusted n (%) / Patients with at Least 75% Reduction in UUI from Baseline to Week 12, Adjusted n (%): MI for missing values; for 75% UUI responders, Active-Placebo CMH Difference / 100% UUI responders, Active-Placebo CMH Difference: stratified by sex; for Urgency, Change from Baseline LS Mean / Urgency, LS Mean Difference active - Placebo: baseline to Week 12
Protocol: Enrollment of patients included individuals with OAB Wet (those with UUI, the involuntary loss of urine accompanied by urgency) and OAB Dry (those without UUI). A total of 1,518 patients were randomized across 215 study sites into one of three groups for a 12-week treatment period.
The study consisted of a Screening Period (1 to 5 weeks), a single-blind Run-in Period (2 weeks), a randomized double-blind Treatment Period (12 weeks), and a Follow-up Period (4 weeks).
Tolterodine ER 4 mg was the active control. […] Between the Baseline and Week 12 Visits, patients had study assessments at Week 4 and Week 8.
The Patient Voiding Diary was used by participants (via the eDiary or paper Diary) to record the frequency of daily OAB symptoms including all micturitions, urgency, incontinence, and main reason for incontinence by selecting the respective box for each symptom occurring during the course of a given day and night.
Urine volume data were collected separately by patients using the Urine Volume component of the eDiary, or the paper Urine Volume Chart. The Urine Volume Chart is a tool used in clinical practice and clinical investigation to assess voiding functions over a 24-hour period and is regarded as a useful instrument in the investigation of patients with voiding symptoms. Urine volume may be collected during any one (1) of the 7 Diary Days prior to the visit, and it should be recorded for ˜24 hours starting from the time the patient gets up for the day and continues until the time the patient gets up for the day on the next day.
For the purpose of this study, the number of micturitions was defined as the number of times a patient has voided in the toilet as indicated on the Patient Voiding Diary. Average daily micturitions were calculated using the daily entries in the Patient Voiding Diary, which was completed over the 7 days prior to each study visit. Average daily number of micturitions were calculated as the total number of micturitions that occurred on a Complete Diary Day divided by the number of Complete Diary Days in the Patient Voiding Diary. A complete diary day required confirmation by the patient in the Patient Voiding Diary that all voids and leakages had been recorded for the diary day. Baseline was defined as the average number of micturitions occurring during the last evaluable diary prior to the Baseline Visit.
The number of UUI episodes was defined as the number of times a patient had checked “urge” as the reason for accidental urine leakage. Average daily UUI episodes at each study visit were calculated in the same manner as described above for the micturition endpoint. The UUI endpoint were analyzed using only OAB Wet patients.
For the analysis of the co-primary endpoints (change from baseline in average number of daily micturitions at Week 12 and change from baseline in average number of daily urge urinary incontinence episodes at Week 12, and placebo adjustment of each), a mixed model for repeated measure (MMRM) with restricted maximum likelihood estimation was used. This model corrects for dropout and accounts for the fact that measurements taken on the same patient over time tend to be correlated by using all available information on patients within the same covariate set to derive an estimate of the treatment effect for a dropout-free population. The analysis model for each efficacy endpoint includes terms for treatment, visit, OAB Type (Wet vs Dry), Sex (Female vs Male), Region (US vs Rest of World), baseline score, and interaction of visit by treatment.
Primary inferences were drawn from treatment differences for the changes from baseline derived from the MMRM models at Week 12. As part of secondary objectives, the treatment differences for each post baseline visit were also derived using the same MMRM model. […]

[1] = 50% Total Incontinence Responders, Week 2
[2] = 50% Total Incontinence Responders, Week 4
[3] = 50% Total Incontinence Responders, Week 8
[4] = 50% Total Incontinence Responders, Week 12
[5] = Dry population, baseline to Week 2

## O=C(Nc1ccc(C[C@@H]2CC[C@H]([C@H](O)c3ccccc3)N2)cc1)[C@@H]1CCc2nccc(=O)n21 [Vibegron, (6S)-N-[4-[[(2S,5R)−5-[(R)-hydroxy(phenyl)methyl]pyrrolidin−2-yl]methyl]phenyl]−4-oxo−7,8-dihydro−6H-pyrrolo[1,2-a]pyrimidine−6-carboxamide]
[1]
  Average Volume Voided per Micturition, Mean (SD): 173.8 (76.89)
  Average daily number of urgency episodes, Mean (SD): 5.62 (3.792)
  Change from Baseline in Average Daily Number of Urgency Episodes, LS Mean (SE): −2.1 (0.15)
  Change from Baseline in Average Volume Voided per Micturition, LS Mean: 16.1 (3.79)
  Change from baseline in Percent Dry Diary Days, LS Mean: 29.0 (2.11) Percent
  Percent Dry Diary Days, Mean (SD): 34.64 (36.322) Percent
[2]
  Average Volume Voided per Micturition, Mean (SD): 176.5 (81.31)
  Average daily number of urgency episodes, Mean (SD): 5.01 (3.889)
  Change from Baseline in Average Daily Number of Urgency Episodes, LS Mean (SE): −2.6 (0.16)
  Change from Baseline in Average Volume Voided per Micturition, LS Mean: 18.0 (3.99)
  Change from baseline in Percent Dry Diary Days, LS Mean: 37.8 (2.41) Percent
  Percent Dry Diary Days, Mean (SD): 43.31 (41.468) Percent
[3]
  Average Volume Voided per Micturition, Mean (SD): 182.0 (84.53)
  Average daily number of urgency episodes, Mean (SD): 4.25 (3.833)
  Change from Baseline in Average Daily Number of Urgency Episodes, LS Mean (SE): −3.4 (0.19)
  Change from Baseline in Average Volume Voided per Micturition, LS Mean: 24.2 (4.12)
  Change from baseline in Percent Dry Diary Days, LS Mean: 47.4 (2.45) Percent
  Percent Dry Diary Days, Mean (SD): 53.01 (39.898) Percent
[4]
  Average Volume Voided per Micturition, Mean (SD): (186.2 (84.24)
  Average daily number of urgency episodes, Mean (SD): 3.67 (3.481)
  Change from Baseline in Average Daily Number of Urgency Episodes, LS Mean (SE): −4.0 (0.20)
  Change from Baseline in Average Volume Voided per Micturition, LS Mean: 27.6 (4.24)
  Change from baseline in Percent Dry Diary Days, LS Mean: 55.5 (2.37) Percent
  Percent Dry Diary Days, Mean (SD): 61.0 (37.857) Percent
75% UUI Responders, Week 2
  Average Volume Voided per Micturition, Mean (SD): 174.3 (77.29)
  Average daily number of urgency episodes, Mean (SD): 5.40 (3.762)
  Change from Baseline in Average Volume Voided per Micturition, LS Mean: 17.7 (4.28)
  Change from baseline in average daily number of urgency episodes, LS Mean: −2.2 (0.17)
75% UUI Responders, Week 4
  Average Volume Voided per Micturition, Mean (SD): 178.1 (82.51)
  Average daily number of urgency episodes, Mean (SD): 4.72 (3.838)
  Change from Baseline in Average Volume Voided per Micturition, LS Mean: 20.7 (4.52)
  Change from baseline in average daily number of urgency episodes, LS Mean: −2.7 (0.19)
75% UUI Responders, Week 8
  Average Volume Voided per Micturition, Mean (SD): 184.2 (87.70)
  Average daily number of urgency episodes, Mean (SD): 3.95 (3.742)
  Change from Baseline in Average Volume Voided per Micturition, LS Mean: 27.2 (4.67)
  Change from baseline in average daily number of urgency episodes, LS Mean: −3.5 (0.21)
75% UUI Responders, Week 12
  Average Volume Voided per Micturition, Mean (SD): 185.0 (87.89)
  Average daily number of urgency episodes, Mean (SD): 3.31 (3.433)
  Change from Baseline in Average Volume Voided per Micturition, LS Mean: 26.9 (4.87)
  Change from baseline in average daily number of urgency episodes, LS Mean: −4.2 (0.23)
Age ≥65 years, Week 12
  Daily Urgency Episodes: Vibegron - Placebo LS Means Difference: −1.0
Age ≥65 years
  Daily Urgency Episodes: Reduction from Baseline at Week 12, LS Mean: −2.7
Age ≥75 years, Week 12
  Daily Urgency Episodes: Vibegron - Placebo LS Means Difference: −1.7
Age ≥75 years
  Daily Urgency Episodes: Reduction from Baseline at Week 12, LS Mean: −2.6
All patients, Week 12
  Daily Urgency Episodes: Vibegron - Placebo LS Means Difference: −0.7
All patients
  Daily Urgency Episodes: Reduction from Baseline at Week 12, LS Mean: −2.7
Baseline Number of UUI <3
  Patients with 100% Reduction in UUI from Baseline to Week 12, Unadjusted n (%): 79 (35.4) n (%)
  Patients with at Least 75% Reduction in UUI from Baseline to Week 12, Unadjusted n (%): 112 (50.2) n (%)
  Patients with 100% Reduction in UUI from Baseline to Week 12, Adjusted n (%): 68 (30.4) n (%)
  Patients with at Least 75% Reduction in UUI from Baseline to Week 12, Adjusted n (%): 101 (45.5) n (%)
  75% UUI responders, Active-Placebo CMH Difference: 7.1
  100% UUI responders, Active-Placebo CMH Difference: 2.8
Baseline Number of UUI ≥3
  Patients with 100% Reduction in UUI from Baseline to Week 12, Unadjusted n (%): 37 (20.6) n (%)
  Patients with at Least 75% Reduction in UUI from Baseline to Week 12, Unadjusted n (%): 99 (55.0) n (%)
  Patients with 100% Reduction in UUI from Baseline to Week 12, Adjusted n (%): 34 (19.1) n (%)
  Patients with at Least 75% Reduction in UUI from Baseline to Week 12, Adjusted n (%): 98 (54.4) n (%)
  75% UUI responders, Active-Placebo CMH Difference: 29.4
  100% UUI responders, Active-Placebo CMH Difference: 12.3
Dry population, Age <65
  Urgency, Change from Baseline LS Mean: −2.9 (64)
  Urgency, LS Mean Difference active - Placebo: −1.4
Dry population, Age ≥65
  Urgency, Change from Baseline LS Mean: −2.2 (45)
  Urgency, LS Mean Difference active - Placebo: −0.5
Dry population, Week 2
  Average daily number of urgency episodes, Mean (SD): 6.98 (4.732)
  Change from baseline in average daily number of urgency episodes, LS Mean: −1.5 (0.24)
  Urgency episodes, Active - Placebo LS Mean Difference: −0.8 (0.35)
Dry population, Week 4
  Average daily number of urgency episodes, Mean (SD): 6.80 (4.667)
  Change from baseline in average daily number of urgency episodes, LS Mean: −1.8 (0.26)
  Urgency episodes, Active - Placebo LS Mean Difference: −0.9 (0.37)
Dry population, Week 8
  Average daily number of urgency episodes, Mean (SD): 6.39 (4.627)
  Change from baseline in average daily number of urgency episodes, LS Mean: −2.2 (0.30)
  Urgency episodes, Active - Placebo LS Mean Difference: −1.0 (0.44)
Dry population, Week 12
  Average daily number of urgency episodes, Mean (SD): 6.17 (4.958)
  Change from baseline in average daily number of urgency episodes, LS Mean: −2.6 (0.33)
  Urgency episodes, Active - Placebo LS Mean Difference: −1.0 (0.47)
[5]
  Patients with at Least 50% Reduction in Urgency Episodes, Adjusted (%): 18.1%
  Patients with at Least 50% Reduction in Urgency Episodes, Adjusted n: 22
  Patients with at Least 50% Reduction in Urgency Episodes, Unadjusted (%): 18.7%
  Patients with at Least 50% Reduction in Urgency Episodes, Unadjusted n: 23
  Urgency 50% responders, Active - Placebo CMH Difference: 4.7
Dry population, baseline to Week 4
  Patients with at Least 50% Reduction in Urgency Episodes, Adjusted (%): 22.4%
